Measurements as given in patent publication US20120220562A1, “Anti-Viral Compounds” (ABBOTT LABAORATORIES, priority 2011, published 2012).

Tested on: HCV 1b-Con1 replicon
Assay: HCV 1b-Con1 replicon assay in the presence of 5% FBS
Format: cell-based
Conditions: Hepatitis C virus

Row | SMILES | EC50 [pM]
1 | COC(=O)N[C@H](C(=O)N1CCC[C@H]1c1nc2cc([C@H]3CC[C@H](c4ccc5[nH]c([C@@H]6CCCN6C(=O)[C@@H](NC(=O)OC)C(C)C)nc5c4)N3c3ccc(Cl)cc3)ccc2[nH]1)C(C)C [Example 3.4, methyl {(2S)-1-[(2S)-2-{5-[(2R,5R)-1-(4-chlorophenyl)-5-{2-[(2S)-1-{(2S)-2-[(methoxycarbonyl)amino]-3-methylbutanoyl}pyrrolidin-2-yl]-1H-benzimidazol-5-yl}pyrrolidin-2-yl]-1H-benzimidazol-2-yl}pyrrolidin-1-yl]-3-methyl-1-oxobutan-2-yl}carbamate] | < 100
2 | COC(=O)N[C@H](C(=O)N1CCC[C@H]1c1nc2cc([C@H]3CC[C@H](c4ccc5[nH]c([C@@H]6CCCN6C(=O)[C@@H](NC(=O)OC)C(C)C)nc5c4)N3c3cc(F)c(N4CCC(C(C)C)CC4)c(F)c3)ccc2[nH]1)C(C)C [Example 4.22, methyl {(2S)-1-[(2S)-2-{5-[(2R,5R)-1-{3,5-difluoro-4-[4-(propan-2-yl)piperidin-1-yl]phenyl}-5-{2-[(2S)-1-{(2S)-2-[(methoxycarbonyl)amino]-3-methylbutanoyl}pyrrolidin-2-yl]-1H-benzimidazol-5-yl}pyrrolidin-2-yl]-1H-benzimidazol-2-yl}pyrrolidin-1-yl]-3-methyl-1-oxobutan-2-yl}carbamate] | < 100
3 | COC(=O)N[C@H](C(=O)N1CCC[C@H]1c1nc2cc([C@H]3CC[C@H](c4cc5nc([C@@H]6CCCN6C(=O)[C@@H](NC(=O)OC)C(C)C)[nH]c5cc4F)N3c3cc(F)c(N4CCO[C@@H](c5ccccc5)C4)c(F)c3)c(F)cc2[nH]1)C(C)C [Example 4.55, methyl {(2S)-1-[(2S)-2-{5-[(2R,5R)-1-{3,5-difluoro-4-[(2S)-2-phenylmorpholin-4-yl]phenyl}-5-{6-fluoro-2-[(2S)-1-{(2S)-2-[(methoxycarbonyl)amino]-3-methylbutanoyl}pyrrolidin-2-yl]-1H-benzimidazol-5-yl}pyrrolidin-2-yl]-6-fluoro-1H-benzimidazol-2-yl}pyrrolidin-1-yl]-3-methyl-1-oxobutan-2-yl}carbamate] | < 100
4 | COC(=O)N[C@H](C(=O)N1CCC[C@H]1c1nc2cc([C@H]3CC[C@H](c4ccc5nc([C@@H]6CCCN6C(=O)[C@@H](NC(=O)OC)C(C)C)[nH]c5c4)N3c3ccc(F)c(F)c3)ccc2[nH]1)C(C)C [Example 4.9, methyl {(2S)-1-[(2S)-2-{5-[(2R,5R)-1-(3,4-difluorophenyl)-5-{2-[(2S)-1-{(2S)-2-[(methoxycarbonyl)amino]-3-methylbutanoyl}pyrrolidin-2-yl]-1H-benzimidazol-6-yl}pyrrolidin-2-yl]-1H-benzimidazol-2-yl}pyrrolidin-1-yl]-3-methyl-1-oxobutan-2-yl}carbamate] | < 100
5 | COC(=O)N[C@H](C(=O)N1CCC[C@H]1c1nc2c(Cl)c([C@H]3CC[C@H](c4ccc5[nH]c([C@@H]6CCCN6C(=O)[C@@H](NC(=O)OC)C(C)C)nc5c4Cl)N3c3ccc(C(C)(C)C)cc3)ccc2[nH]1)C(C)C [Example 6.5, methyl {(2S)-1-[(2S)-2-{5-[(2R,5R)-1-(4-tert-butylphenyl)-5-{4-chloro-2-[(2S)-1-{(2S)-2-[(methoxycarbonyl)amino]-3-methylbutanoyl}pyrrolidin-2-yl]-1H-benzimidazol-5-yl}pyrrolidin-2-yl]-4-chloro-1H-benzimidazol-2-yl}pyrrolidin-1-yl]-3-methyl-1-oxobutan-2-yl}carbamate] | < 100
6 | COC(=O)N[C@H](C(=O)N1CCC[C@H]1c1nc2ccc([C@H]3CC[C@H](c4cc5[nH]c([C@@H]6CCCN6C(=O)[C@@H](NC(=O)OC)C(C)C)nc5cc4F)N3c3cc(F)c(N4CCCCC4)c(F)c3)cc2[nH]1)C(C)C [Example 4.43, methyl {(2S)-1-[(2S)-2-{6-[(2R,5R)-1-[3,5-difluoro-4-(piperidin-1-yl)phenyl]-5-{5-fluoro-2-[(2S)-1-{(2S)-2-[(methoxycarbonyl)amino]-3-methylbutanoyl}pyrrolidin-2-yl]-1H-benzimidazol-6-yl}pyrrolidin-2-yl]-1H-benzimidazol-2-yl}pyrrolidin-1-yl]-3-methyl-1-oxobutan-2-yl}carbamate] | < 100
7 | COC(=O)N[C@H](C(=O)N1CCC[C@H]1c1nc2c(F)c([C@H]3CC[C@H](c4ccc5nc([C@@H]6CCCN6C(=O)[C@@H](NC(=O)OC)C(C)C)[nH]c5c4F)N3c3ccc(C(C)(C)C)cc3)ccc2[nH]1)C(C)C [Example 6.3, methyl {(2S)-1-[(2S)-2-{5-[(2R,5R)-1-(4-tert-butylphenyl)-5-{7-fluoro-2-[(2S)-1-{(2S)-2-[(methoxycarbonyl)amino]-3-methylbutanoyl}pyrrolidin-2-yl]-1H-benzimidazol-6-yl}pyrrolidin-2-yl]-4-fluoro-1H-benzimidazol-2-yl}pyrrolidin-1-yl]-3-methyl-1-oxobutan-2-yl}carbamate] | < 100
8 | COC(=O)N[C@H](C(=O)N1CCC[C@H]1c1nc2cc([C@H]3CC[C@H](c4cc5nc([C@@H]6CCCN6C(=O)[C@@H](NC(=O)OC)C(C)C)[nH]c5cc4F)N3c3cc(F)c(N4CCC5(CC4)CC5)c(F)c3)c(F)cc2[nH]1)C(C)C [Example 6.12, methyl {(2S)-1-[(2S)-2-{5-[(2R,5R)-1-[4-(6-azaspiro[2.5]oct-6-yl)-3,5-difluorophenyl]-5-{6-fluoro-2-[(2S)-1-{(2S)-2-[(methoxycarbonyl)amino]-3-methylbutanoyl}pyrrolidin-2-yl]-1H-benzimidazol-5-yl}pyrrolidin-2-yl]-6-fluoro-1H-benzimidazol-2-yl}pyrrolidin-1-yl]-3-methyl-1-oxobutan-2-yl}carbamate] | < 100
9 | COC(=O)N[C@H](C(=O)N1CCC[C@H]1c1nc2cc([C@H]3CC[C@H](c4cc5nc([C@@H]6CCCN6C(=O)[C@@H](NC(=O)OC)C(C)C)[nH]c5cc4F)N3c3cc(F)c(N4CCC(c5ccc(F)cc5)CC4)c(F)c3)c(F)cc2[nH]1)C(C)C [Example 4.57, methyl {(2S)-1-[(2S)-2-{5-[(2R,5R)-1-{3,5-difluoro-4-[4-(4-fluorophenyl)piperidin-1-yl]phenyl}-5-{6-fluoro-2-[(2S)-1-{(2S)-2-[(methoxycarbonyl)amino]-3-methylbutanoyl}pyrrolidin-2-yl]-1H-benzimidazol-5-yl}pyrrolidin-2-yl]-6-fluoro-1H-benzimidazol-2-yl}pyrrolidin-1-yl]-3-methyl-1-oxobutan-2-yl}carbamate] | < 100
10 | COC(=O)N[C@H](C(=O)N1CCC[C@H]1c1nc2cc([C@H]3CC[C@H](c4ccc5[nH]c([C@@H]6CCCN6C(=O)[C@@H](NC(=O)OC)C(C)C)nc5c4)N3c3cc(F)c(N4CCCCC4)cc3F)ccc2[nH]1)C(C)C [Example 4.5, methyl {(2S)-1-[(2S)-2-{5-[(2R,5R)-1-[2,5-difluoro-4-(piperidin-1-yl)phenyl]-5-{2-[(2S)-1-{(2S)-2-[(methoxycarbonyl)amino]-3-methylbutanoyl}pyrrolidin-2-yl]-1H-benzimidazol-5-yl}pyrrolidin-2-yl]-1H-benzimidazol-2-yl}pyrrolidin-1-yl]-3-methyl-1-oxobutan-2-yl}carbamate] | < 100
11 | COC(=O)N[C@H](C(=O)N1CCC[C@H]1c1nc2cc([C@H]3CC[C@H](c4ccc5[nH]c([C@@H]6CCCN6C(=O)[C@@H](NC(=O)OC)C(C)C)nc5c4)N3c3ccnc(F)c3)ccc2[nH]1)C(C)C [Example 1.4, methyl {(2S)-1-[(2S)-2-{5-[(2R,5R)-1-(2-fluoropyridin-4-yl)-5-{2-[(2S)-1-{(2S)-2-[(methoxycarbonyl)amino]-3-methylbutanoyl}pyrrolidin-2-yl]-1H-benzimidazol-5-yl}pyrrolidin-2-yl]-1H-benzimidazol-2-yl}pyrrolidin-1-yl]-3-methyl-1-oxobutan-2-yl}carbamate] | 100 to 1000
12 | COC(=O)N[C@H](C(=O)N1CCC[C@H]1c1nc2cc(F)c([C@H]3CC[C@H](c4cc5[nH]c([C@@H]6CCCN6C(=O)[C@@H](NC(=O)OC)C6CCCC6)nc5cc4F)N3c3cc(F)c(N4CCN(c5ccc(C(F)(F)F)cc5)CC4)c(F)c3)cc2[nH]1)C1CCCC1 [Example 4.45, dimethyl ([(2R,5R)-1-(3,5-difluoro-4-{4-[4-(trifluoromethyl)phenyl]piperazin-1-yl}phenyl)pyrrolidine-2,5-diyl]bis{(5-fluoro-1H-benzimidazole-6,2-diyl)(2S)pyrrolidine-2,1-diyl[(1S)-1-cyclopentyl-2-oxoethane-2,1-diyl]})bis carbamate] | < 100
13 | COC(=O)N[C@H](C(=O)N1CCC[C@H]1c1nc2cc([C@H]3CC[C@H](c4ccc5[nH]c([C@@H]6CCCN6C(=O)[C@@H](NC(=O)OC)C(C)C)nc5c4)N3c3cc(F)c(N4CCC(c5ccc(F)cc5)CC4)c(F)c3)ccc2[nH]1)C(C)C [Example 3.42, methyl {(2S)-1-[(2S)-2-{5-[(2R,5R)-1-{3,5-difluoro-4-[4-(4-fluorophenyl)piperidin-1-yl]phenyl}-5-{2-[(2S)-1-{(2S)-2-[(methoxycarbonyl)amino]-3-methylbutanoyl}pyrrolidin-2-yl]-1H-benzimidazol-5-yl}pyrrolidin-2-yl]-1H-benzimidazol-2-yl}pyrrolidin-1-yl]-3-methyl-1-oxobutan-2-yl}carbamate] | < 100
14 | COC(=O)N[C@H](C(=O)N1CCC[C@H]1c1nc2cc([C@H]3CC[C@H](c4cc5nc([C@@H]6CCCN6C(=O)[C@@H](NC(=O)OC)C(C)C)[nH]c5cc4F)N3c3cc(F)c(N4CCC(c5ccc(F)cc5F)CC4)c(F)c3)c(F)cc2[nH]1)C(C)C [Example 4.56, methyl {(2S)-1-[(2S)-2-{5-[(2R,5R)-1-{4-[4-(2,4-difluorophenyl)piperidin-1-yl]-3,5-difluorophenyl}-5-{6-fluoro-2-[(2S)-1-{(2S)-2-[(methoxycarbonyl)amino]-3-methylbutanoyl}pyrrolidin-2-yl]-1H-benzimidazol-5-yl}pyrrolidin-2-yl]-6-fluoro-1H-benzimidazol-2-yl}pyrrolidin-1-yl]-3-methyl-1-oxobutan-2-yl}carbamate] | < 100
